Data: patent US9034439B2, “Synthesis and applications of soluble pentacene precursors and related compounds” (Academia Sinica, priority 2008, dated 2015)
Converted amounts (≈) assume the structure as drawn. “Also recorded” adds a separate entry of the source. Read-outs that look alike come from different tables or passages of the source. One block for each molecule: values may come before it.

Key:
[1] = Solubility in organic solvents; assay type: physicochemical; details: for solubility (comparison in words): organic solvents
[2] = Thermal fragmentation / decomposition (thermogravimetric analysis, heating); assay type: physicochemical; details: for thermal conversion of spin-cast film to pentacene: heating amorphous thin films cast from toluene
Experimental: FIG. 2 presents thermogravimetric analysis curves for compounds 1 (blue) and 2 (red) at 10° C./min heating rate, assessing the carbon monoxide (CO) expulsion reaction, in which the carbonyl bridge is released from the precursor for conversion to pentacene.
Melting points were taken on a Fargo MP-2D melting-point apparatus and were not corrected. UV spectra were recorded on a Hewlett-Packard 8453 spectrophotometer. Infrared spectra were measured on a Perkin-Elmer L118-F000 FT-IR spectrometer as either thin film or solid dispersion in KBr. Nuclear magnetic resonance spectra were recorded on Bruker AC300 and AV500 super-conducting FT NMR spectrometers with all chemical shifts reported in ppm from tetramethylsilane as an internal standard. Mass spectra were obtained on a Joel JMS 700 double focusing spectrometer. Elemental analyses were performed on a Perkin-Elmer 2400 elemental analyzer. Thermal gravimetric analyses were measured on a Perkin-Elmer Pyris 1 thermogravimetric analyzer. Differential scanning calorimetry was done on a Perkin-Elmer DCS-7 instrument. Column chromatography was carried out using 230-400 mesh silica gel.

[3] = heating; earlier reports; cited from earlier work
[4] = Stability on storage / at ambient conditions; assay type: physicochemical
[5] = organic solvents; cited from earlier work
[6] = organic solvent or mixture, dichloromethane (DCM) and tetrahydrofuran (THF), read-out: solubility
[7] = toluene, solutions for spin-casting

- solubility [1, 6]: ~700 µg/mL (≈ 2280 µM)
- temperature at which CO expulsion / decomposition starts ([2]; TGA, 10° C./min heating rate): 150 °C
SMILES: O=C1[C@H]2c3cc4ccccc4cc3[C@H]1c1cc3ccccc3cc12 [Compound 1, reference compound]
- temperature of CO extrusion to pentacene [3]: 150 °C

- solubility [1, 6]: ~700 µg/mL (≈ 2280 µM)
- solubility (comparison in words) [1]: better than compound 1
- weight loss ([2]; thermogravimetric curve, corresponds to a CO unit): 10%
- stability (in words) [4]: stable at ambient temperature
SMILES: O=C1[C@@H]2c3ccccc3[C@@H]1c1cc3cc4ccccc4cc3cc12 [Compound 2]
- temperature of CO extrusion to pentacene [3]: 128 °C

- stability (in words) [4]: relatively low
SMILES: O=C1[C@@H]2C=C[C@@H]1c1cc3cc4cc5ccccc5cc4cc3cc12 [Compound 11]

SMILES: O=C1C2c3ccccc3[C@@H]1c1cc3c(cc12)[C@@H]1C(=O)[C@@H]3c2ccccc21 [Compound 12]
- solubility (comparison in words) [1]: higher solubility than either compound 1 or 2
- stability (in words) [4]: stable at low temperature for a long period of time; also recorded: can be kept at −10 °C for an extended period of time

SMILES: O=C1C2C=CC1c1cc3cc4cc5c(cc4cc3cc12)C1C=CC5C1=O [Compound 13A]
- stability (in words) [4]: decomposed readily at ambient conditions; also recorded: not stable enough to sustain at ambient conditions

SMILES: O=C1C2C=CC1c1cc3cc4cc5c(cc4cc3cc12)C1C=CC5C1=O [Compound 13]
- stability (in words) [4]: cannot be isolated at ambient temperature; also recorded: relatively low

- stability (in words) [4]: relatively low
SMILES: O=C1C2C=CC1c1cc3c(cc12)[C@H]1C(=O)[C@H]3c2cc3c(cc21)C1C=C[C@H]3C1=O [Compound 14]

SMILES: C1=C[C@@H]2c3cc4cc5cc6c(cc5cc4cc3[C@@H]1[C@]21OCCO1)[C@H]1C=C[C@@H]6[C@]12OCCO2 [Compound 16]
- fragmentation / dissociation temperature of ethylene ketal (CO2 and ethylene released) ([2]; TGA): about 225 °C

- solubility [1, 7]: good solubility
- decomposition temperature ([2]; anti isomer): 297 °C
- decomposition temperature ([2]; syn isomer): 271 °C
SMILES: COC1(OC)C2(Cl)C(Cl)=C(Cl)C1(Cl)c1cc3cc4cc5c(cc4cc3cc12)C1(Cl)C(Cl)=C(Cl)C5(Cl)C1(OC)OC [Compound 23]
- thermal conversion of spin-cast film to pentacene [2]: did not yield either pentacene or 1,2,3,4,8,9,10,11-octachloropentacene

- solubility [1, 7]: good solubility
- decomposition temperature ([2]; anti isomer): 288 °C
- decomposition temperature ([2]; syn isomer): 252 °C
SMILES: COC1(OC)C2C=CC1c1cc3cc4cc5c(cc4cc3cc12)C1C=CC5C1(OC)OC [Compound 25]
- thermal conversion of spin-cast film to pentacene [2]: did not yield either pentacene or 1,2,3,4,8,9,10,11-octachloropentacene

SMILES: c1csc(-c2ccc3cc4cc(-c5cccs5)ccc4cc3c2)c1 [Compound 35]
- solubility [5]: undesirably low solubility

SMILES: C(=C\c1cccs1)/c1ccc2cc3cc(/C=C/c4cccs4)ccc3cc2c1 [Compound 36]
- solubility [5]: undesirably low solubility

SMILES: c1ccc(-c2ccc3cc4cc(-c5ccccc5)ccc4cc3c2)cc1 [Compound 37]
- solubility [5]: undesirably low solubility

SMILES: C(=C\c1ccc2cc3cc(/C=C/c4ccccc4)ccc3cc2c1)/c1ccccc1 [Compound 38]
- solubility [5]: undesirably low solubility

SMILES: c1ccc2cc3cc4cc5ccccc5cc4cc3cc2c1 [pentacene]
- temperature up to which stable ([2]; pentacene produced from compound 2, TGA): 300 °C
